# Test results: patent US4812443A, “Methods for enhancing differentiation and proliferation of hematopoietic progenitor cells” (Kuraray Co., Ltd., priority 1984, dated 1989)
# Experiments:
# [1] = tested on: blood sugar; assay: Blood sugar lowering action in rats (glucose-oxidase method); type: in vivo, rat (Wistar-strain); conditions: 150, 300 and 600 mg/kg; two hours after administration; vs control
# Text: (§1) Since the dolichol is a water-insoluble oily liquid, it was used as a solution in sesame oil in the case of oral administration, and as a suspension in a nonionic surfactant (HCO-60, a trade name for a product of Nikko Chemical Co., Ltd.) in the case of intraperitoneal administration and in an in vitro test in the following experiment.
# (§2) In the following experiment, ddY-strain male mice, Wistar-strain male rats (Shizuoka Laboratory Animal Center), Japanese white male rabbits (Carely) and Hartley-strain male guinea pigs (Clea Japan Inc.) were used. The animals were kept under conditions including a temperature of 23±1° C., a humidity of 55±10%, an illuminating time (7:00 am to 9.00 pm) and 15 ventilations per hour. The mice and rats were fed with solid feeds MF (a product of Oriental Yeast Co., Ltd.) and the guinea pigs and rabbits were fed with solid feeds GM-3 and RM-1 (Funabashi Farm Co.). They were allowed to take tap water freely. The animals were preliminarily kept for more than one week, and those which were healthy in general conditions were used in the experiments.
# Wistar-strain male rats (180-210 g), 6 per group, were used. Two hours after administration of dolichol to the rats, the blood was taken from the abdominal main vein of the rats, and the blood sugar level was measured by the glucose-oxidase method.
# [2] = tested on: reserpine-induced blepharoptosis; assay: Reserpine antagonistic action in mice; type: in vivo, mouse (ddY-strain); conditions: 150, 300 and 600 mg/kg; reserpine 4 mg/kg i.p.; one hour after administration; vs control
# Text: as §1
# as §2, with “The animals were preliminarily kept for more than one week, and those which were healthy in general conditions were used in the experiments.” left out
# ddY-strain male mice (27-30 g), 6 per group, were used. […] One hour after the administration of dolichol, the degree of blepharoptosis in the mice was observed and recorded in accordance with the Rubin's standards of evaluation (0: normal opening of the eyes, 1: 1/4 blepharoptosis, 2: 1/2 blepharoptosis, 3: 3/4 blepharoptosis, 4: complete blepharoptosis).
# [3] = tested on: acetic acid writhing; assay: Analgesic action in mice (acetic acid writhing method); type: in vivo, mouse (ddY-strain); conditions: 150, 300 and 600 mg/kg; one hour before acetic acid; vs control
# Text: as §1, §2
# ddY-strain male mice (27-30 g), 6 per group, were used. One hour after administration of dolichol to the mice, 0.6% acetic acid was intraperitoneally administered to the mice in a dose of 0.1 ml/10 g. […] The inhibitory action on acetic acid writhing was thus examined.
# [4] = tested on: late erythrocytic progenitor cells (CFU-e); assay: Differentiation and proliferation of late erythrocytic progenitor cells (CFU-e), cluster colony formation; type: cell-based, mouse (BDF1-strain); conditions: 20 μg/ml, Runs 2 to 4
# Protocol: The mouse bone marrow cells used in the following experiments were all prepared as follows:
# BDF1 -strain mice (female, 8 to 10 weeks old) were killed by cervical dislocation, and the femurs were collected under sterile conditions. The bone marrow cells were flushed out from the femurs with α-medium, and formed into a single cell suspension by repeated aspiration with a 26-gauge needle fitted to a 1 ml-syringe. The cells were washed two times with α-medium by centrifugation at 200×G for 5 minutes and used in the following experiments.
# In accordance with the method of Murphy et al. mentioned above, mouse bone marrow cells were plated at 2.5×10^4 nuclear cells into 0.5 ml of α-medium containing 0.25 unit of erythropoietin, 30% fetal bovine serum, 1% bovine serum albumin, 0.1 mM 2-mercaptoethanol and 0.4% methyl cellulose with 10 μg of dolichol dissolved in 1 μl of ethanol, 10 μg of dolichyl phosphate dispersed in 0.5 μl of dimethyl sulfoxide, 1 μl of ethanol or 0.5 μl of dimethyl sulfoxide in a 16 mm.phi. tissue culture plate, and incubated at 37° C. in a humidified atmosphere of 5% carbon dioxide in air for 2 days. The number of cluster colonies consisting of 8 to 64 erythroblasts derived from CFU-e in the tissue culture plate was scored with an inverted microscope. The experiment was carried out by 6 replica assays for each group, and the average number of the colonies formed was determined. The results are shown in Table 3, in the rows of Runs 2 to 4.
# [5] = tested on: extracted spermiduct; assay: Peripheral action, extracted spermiduct of rats; design: species or system rat (Wistar-strain); conditions: up to 10^-4 g/ml, 32° C.
# Text: as §1, §2
# Wistar-strain male rats (180 to 200 g), 3 per group, were used. The extracted spermiduct samples were suspended in Locke-Ringer solution at 32° C. The contraction of the spermiduct was recorded by the same method as in the preceding section. […]
# [6] = tested on: mice; assay: Acute toxicity of dolichol in mice; type: in vivo, mouse (ddY-strain); conditions: 5,000 mg/kg orally or 1,000 mg/kg intraperitoneally
# Protocol: (1) Dolichol synthesized in Referential Example 1 below was used as a solution in sesame oil in the case of oral administration, or as a suspension in HCO-60 (a trade name for a nonionic surfactant made by Nikko Chemical Co., Ltd.) in the case of intraperitoneal administration.
# ddY-strain mice (21-27 g), 6 per group, were used. Dolichol was administered to the mice in a dose of 5,000 mg/kg orally, or 1,000 mg/kg intraperitoneally on the 1st day of the test, and the mice were then observed for toxic symptoms and mortality for seven days. The body weights of the mice were measured before administration and on the 1st and 7th days. Control groups were each given sesame oil or HCO-60, and observed and weighed in the same way as in the case of the groups to which dolichol was administered. On the 7th day, all the mice were dissected and visually observed.
# [7] = tested on: extracted trachea; assay: Peripheral action, extracted trachea of guinea pigs; design: species or system guinea pig (Hartley-strain); conditions: up to 10^-4 g/ml, 37° C.
# Text: as §1, §2
# Hartley-strain male guinea pigs (350-400 g), 3 per group, were used. The extracted trachea was suspended in Locke-Ringer solution at 37° C. through which air was introduced. The contraction of the trachea was recorded in the same way as in the case of the extracted ileum. […]
substance,measurement,setting,value
dolichol,Blood sugar level,[1],no significant difference was noted
same,Antagonistic action against reserpine-induced blepharoptosis,[2],no antagonistic action
same,Inhibitory action on acetic acid writhing,[3],no significant difference was noted
same,Number of colonies formed in the dolichols-added group (CFU-e),"[4]; 2 days, erythropoietin 0.25 unit, mean ± S.E., 6 replicas, solvent controls 124.2 ± 2.7, 246.0 ± 5.0, 124.7 ± 2.9",151.0 ± 2.2
same,Percent increase (%) of colony formation (CFU-e),[4]; vs solvent-added control group,+21.6%
same,Antagonistic action against noradrenalin,[5]; extracted spermiduct,nor any antagonistic action
same,Direct action on extracted spermiduct,[5],no direct action
same,Changes in body weight,"[6]; 1st and 7th days, vs control",no sigificant difference was noted
same,Abnormality in dissection,[6]; 7th day,No abnormality was noted
same,Mortality,[6]; seven days,no case of death in all of the mice tested
same,Antagonistic action against isoproterenol,[7]; extracted trachea,nor antagonistic action
same,Direct action on extracted trachea,[7],no direct action
